Source: US6756359B2, “C12 modified erythromycin macrolides and ketolides having antibacterial activity” (Chiron Corporation, priority 2001, dated 2004)
Converted amounts (≈) assume the structure as drawn.

Tests used:
Assay in all cases: Antibacterial activity in vitro, MIC by broth microdilution
[1] = test system: S. epidermidis Step_14990; type: cell-based; conditions: Table 5, Strain ID B: S. epidermidis Step_14990; unit assumed
Protocol: (§1) Representative compounds of the present invention were assayed in vitro for antibacterial activity against the bacterial isolates listed in Table 1 as follows:
(§2) The bacterial isolates listed in Table 1 were cultivated from −70° C. frozen stocks by two consecutive overnight passages (P1, P2) at 35° C. on 5% blood agar (Remel, Lenexa, Kans.). Chocolate agar (Remel) is used for Haemophilus influenzae. H. influenzae and Streptococcus pneumoniae are incubated in 5-10% CO2.
(§3) To determine the amount of solvent to be used to give the desired final concentration, the formula “weight obtained in mg/final concentration in mg/mL” will be used. It will give the amount of solvent in mL needed to be added to give the desired concentration. For example, if 2.5 mg/mL is the desired concentration and the weight of compound is 13.7 mg, then the amount of solvent to be added is 3.94 mL (13.7 mg/2.5 mg/mL=3.94 mLs). Methanol is used as the solvent to dissolve the test compounds. Further dilution of stock is done in sterile, deioinzed water. Drug stocks are kept frozen at −70° C., protected from light.
(§4) MICs are determined by the broth microdilution method in accordance with the NCCLS guidelines. In brief, organism suspensions are adjusted to a 0.5 McFarland standard to yield a final inoculum between 3×10^5 and 7×10^5 CFU/mL. Drug dilutions and inocula are made in sterile, cation adjusted Mueller-Hinton Broth (CAMHB) (Remel) for all but S. pneumoniae [CAMHB with 2-5% lysed horse blood (Remel)] and H. influenzae [Haemophilus Test Medium (Remel)]. An inoculum volume of 100 μl is added to wells containing 100 μl of broth with 2-fold serial dilutions of drug. All inoculated microdilution trays are incubated in ambient air at 35° C. for 18-24 hours, except for S. pneumoniae, and H. influenzae (both at 5-10% CO2).
(§5) Following appropriate incubation, the MIC is determined and the MIC is defined as the lowest concentration of the drug that prevented visible growth.

[2] = test system: S. aureus Stau_29213; type: cell-based; conditions: Table 5, Strain ID A: S. aureus Stau_29213; unit assumed
Protocol: as §1, §2, §3, §4, §5

[3] = test system: S. epidermidis Step_f50654 Pen S; type: cell-based; conditions: Table 5, Strain ID C: S. epidermidis Step_f50654; unit assumed
Protocol: as §1, §2, §3, §4, §5

[4] = test system: E. faecalis Enfa_29212; type: cell-based; conditions: Table 5, Strain ID D: E. faecalis Enfa_29212; unit assumed
Protocol: as §1, §2, §3, §4, §5

[5] = test system: S. pyogenes Stpy_8668; type: cell-based; conditions: Table 5, Strain ID E: S. pyogenes Stpy_8668
Protocol: as §1, §2, §3, §4, §5

[6] = test system: S. pneumoniae Stpn_Erm 6849; type: cell-based, Streptococcus pneumoniae; conditions: Table 5, Strain ID I: S. pneumoniae Stpn_Erm 6849
Protocol: as §1, §2, §3, §4, §5

[7] = test system: S. pneumoniae Stpn_Mef S 3427; type: cell-based, Streptococcus pneumoniae; conditions: Table 5, Strain ID L: S. pneumoniae Stpn_Mef S 3427; unit assumed
Protocol: as §1, §2, §3, §4, §5

[8] = test system: S. pneumoniae Stpn_280-962 Pen S; type: cell-based, Streptococcus pneumoniae; conditions: Table 5, Strain ID H: S. pneumoniae Stpn_280-962
Protocol: as §1, §2, §3, §4, §5

[9] = test system: S. pneumoniae Stpn_297-749 Pen R; type: cell-based, Streptococcus pneumoniae; conditions: Table 5, Strain ID G: S. pneumoniae Stpn_297-749
Protocol: as §1, §2, §3, §4, §5

[10] = test system: S. pneumoniae Stpn_Mef 5654; type: cell-based, Streptococcus pneumoniae; conditions: Table 5, Strain ID K: S. pneumoniae Stpn_Mef 5654; unit assumed
Protocol: as §1, §2, §3, §4, §5

[11] = test system: S. pneumoniae Stpn_49619; type: cell-based, Streptococcus pneumoniae; conditions: Table 5, Strain ID F: S. pneumoniae Stpn_49619
Protocol: as §1, §2, §3, §4, §5

[12] = test system: S. pneumoniae Stpn_Erm S 4297; type: cell-based, Streptococcus pneumoniae; conditions: Table 5, Strain ID J: S. pneumoniae Stpn_Erm S 4297
Protocol: as §1, §2, §3, §4, §5

[13] = test system: H. influenzae Hain_49247; type: cell-based, Haemophilus influenzae; conditions: Table 5, Strain ID M: H. influenzae Hain_49247; unit assumed
Protocol: as §1, §2, §3, §4, §5

Structure (SMILES)	MIC [1] [µg/mL]	MIC [2] [µg/mL]	MIC [3] [µg/mL]	MIC [4] [µg/mL]	MIC [5]	MIC ([6]; unit assumed) [µg/mL]	MIC [7] [µg/mL]	MIC [8]	MIC [9]	MIC [10] [µg/mL]	MIC [11]	MIC ([12]; unit assumed) [µg/mL]	MIC [13] [µg/mL]	MIC [12]	MIC [6]	MIC ([11]; unit assumed) [µg/mL]	MIC ([5]; unit assumed) [µg/mL]
CC[C@H]1OC(=O)[C@H](C)C(=O)[C@H](C)[C@@H](OC2O[C@H](C)C[C@H](N(C)C)[C@H]2O)[C@@](C)(OC)C[C@@H](C)C(=O)[C@H](C)[C@H]2N(CCCCn3cnc(-c4ccc(C)nc4)c3)C(=O)O[C@]12CC (stereo partly drawn) [Example 29, (3aS,4R,7R,9R,10R,11S,13R,15R,15aR)-3a,4-diethyl-11-methoxy-7,9,11,13,15-pentamethyl-1-{4-[4-(6-methylpyridin-3-yl)-1H-imidazol-1-yl]butyl}-2,6,8,14-tetraoxotetradecahydro-2H-oxacyclotetradecino[4,3-d][1,3]oxazol-10-yl 3,4,6-trideoxy-3-(dimethylamino)-D-xylo-hexopyranoside]	0.2 (≈ 0.238 µM)	0.4 (≈ 0.476 µM)	0.4 (≈ 0.476 µM)	0.2 (≈ 0.238 µM)	≦0.05	1.56 (≈ 1.86 µM)	0.2 (≈ 0.238 µM)	≦0.05	≦0.05	0.78 (≈ 0.928 µM)	≦0.05	0.2 (≈ 0.238 µM)	6.25 (≈ 7.44 µM)	–	–	–	–
CC[C@H]1OC(=O)[C@@](C)(F)C(=O)[C@H](C)[C@@H](OC2O[C@H](C)C[C@H](N(C)C)[C@H]2O)[C@@](C)(OC)C[C@@H](C)C(=O)[C@H](C)[C@H]2N(CCCCn3cnc(-c4ccc(C)nc4)c3)C(=O)O[C@]12CC (stereo partly drawn) [Example 30, (3aS,4R,7S,9R,10R,11S,13R,15R,15aR)-3a,4-diethyl-7-fluoro-11-methoxy-7,9,11,13,15-pentamethyl-1-{4-[4-(6-methylpyridin-3-yl)-1H-imidazol-1-yl]butyl}-2,6,8,14-tetraoxotetradecahydro-2H-oxacyclotetradecino[4,3-d][1,3]oxazol-10-yl 3,4,6-trideoxy-3-(dimethylamino)-D-xylo-hexopyranoside]	0.2 (≈ 0.233 µM)	0.2 (≈ 0.233 µM)	0.4 (≈ 0.466 µM)	0.2 (≈ 0.233 µM)	≦0.05	0.4 (≈ 0.466 µM)	0.1 (≈ 0.117 µM)	≦0.05	≦0.05	0.78 (≈ 0.909 µM)	≦0.05	0.1 (≈ 0.117 µM)	6.25 (≈ 7.28 µM)	–	–	–	–
CC[C@H]1OC(=O)[C@H](C)C(=O)[C@H](C)[C@@H](OC2O[C@H](C)C[C@H](N(C)C)[C@H]2O)[C@@](C)(OC)C[C@@H](C)C(=O)[C@H](C)[C@H]2N(CCCC(C)(C)n3cnc(-c4cccnc4)c3)C(=O)O[C@]12CC (stereo partly drawn) [Example 31, (3aS,4R,7R,9R,10R,11S,13R,15R,15aR)-3a,4-diethyl-11-methoxy-7,9,11,13,15-pentamethyl-1-[4-methyl-4-(4-pyridin-3-yl-1H-imidazol-1-yl)pentyl]-2,6,8,14-tetraoxotetradecahydro-2H-oxacyclotetradecino[4,3-d][1,3]oxazol-10-yl 3,4,6-trideoxy-3-(dimethylamino)-D-xylo-hexopyranoside]	0.4 (≈ 0.468 µM)	0.2 (≈ 0.234 µM)	0.4 (≈ 0.468 µM)	0.2 (≈ 0.234 µM)	≦0.05	0.4 (≈ 0.468 µM)	0.2 (≈ 0.234 µM)	≦0.05	≦0.05	0.78 (≈ 0.913 µM)	≦0.05	0.2 (≈ 0.234 µM)	6.25 (≈ 7.32 µM)	–	–	–	–
CC[C@H]1OC(=O)[C@@](C)(F)C(=O)[C@H](C)[C@@H](OC2O[C@H](C)C[C@H](N(C)C)[C@H]2O)[C@@](C)(OC)C[C@@H](C)C(=O)[C@H](C)[C@H]2N(CCCC(C)(C)n3cnc(-c4cccnc4)c3)C(=O)O[C@]12CC (stereo partly drawn) [Example 32, (3aS,4R,7S,9R,10R,11S,13R,15R,15aR)-3a,4-diethyl-7-fluoro-11-methoxy-7,9,11,13,15-pentamethyl-1-[4-methyl-4-(4-pyridin-3-yl-1H-imidazol-1-yl)pentyl]-2,6,8,14-tetraoxotetradecahydro-2H-oxacyclotetradecino [4,3-d][1,3]oxazol-10-yl 3,4,6-trideoxy-3-(dimethylamino)-D-xylo-hexopyranoside]	0.4 (≈ 0.459 µM)	0.2 (≈ 0.229 µM)	0.4 (≈ 0.459 µM)	0.02 (≈ 0.0229 µM)	≦0.05	0.2 (≈ 0.229 µM)	0.2 (≈ 0.229 µM)	≦0.05	≦0.05	0.78 (≈ 0.894 µM)	≦0.05	–	6.25 (≈ 7.17 µM)	≦0.05	–	–	–
CC[C@H]1OC(=O)[C@H](C)C(=O)[C@H](C)[C@@H](OC2O[C@H](C)C[C@H](N(C)C)[C@H]2O)[C@@](C)(OC)C[C@@H](C)C(=O)[C@H](C)[C@H]2N(CCCCn3cnc(-c4ccc(F)nc4)c3)C(=O)O[C@]12CC (stereo partly drawn) [Example 33, (3aS,4R,7R,9R,10R,11S,13R,15R,15aR)-3a,4-diethyl-1-{4-[4-(6-fluoropyridin-3-yl)-1H-imidazol-1-yl]butyl}-11-methoxy-7,9,11,13,15-pentamethyl-2,6,8,14-tetraoxotetradecahydro-2H-oxacyclotetradecino[4,3-d][1,3]oxazol-10-yl 3,4,6-trideoxy-3-(dimethylamino)-D-xylo-hexopyranoside]	0.2 (≈ 0.237 µM)	0.4 (≈ 0.474 µM)	0.2 (≈ 0.237 µM)	0.1 (≈ 0.118 µM)	≦0.05	–	0.4 (≈ 0.474 µM)	≦0.05	≦0.05	0.1 (≈ 0.118 µM)	–	0.4 (≈ 0.474 µM)	0.1 (≈ 0.118 µM)	–	≦0.05	3.13 (≈ 3.71 µM)	–
CC[C@H]1OC(=O)[C@H](C)C(=O)[C@H](C)[C@@H](OC2O[C@H](C)C[C@H](N(C)C)[C@H]2O)[C@@](C)(OC)C[C@@H](C)C(=O)[C@H](C)[C@H]2N(CCCCc3ncc(-c4cccc(N)c4)s3)C(=O)O[C@]12CC (stereo partly drawn) [Example 34, (3aS,4R,7R,9R,10R,11S,13R,15R,15aR)-1-{4-[5-(3-aminophenyl)-1,3-thiazol-2-yl]butyl}-3a,4-diethyl-11-methoxy-7,9,11,13,15-pentamethyl-2,6,8,14-tetraoxotetradecahydro-2H-oxacyclotetradecino[4,3-d][1,3]oxazol-10-yl 3,4,6-trideoxy-3-(dimethylamino)-D-xylo-hexopyranoside]	0.2 (≈ 0.233 µM)	0.4 (≈ 0.467 µM)	0.2 (≈ 0.233 µM)	0.1 (≈ 0.117 µM)	≦0.05	–	0.4 (≈ 0.467 µM)	≦0.05	≦0.05	0.2 (≈ 0.233 µM)	–	12.5 (≈ 14.6 µM)	0.1 (≈ 0.117 µM)	–	≦0.05	3.13 (≈ 3.65 µM)	–
CC[C@H]1OC(=O)[C@H](C)C(=O)[C@H](C)[C@@H](OC2O[C@H](C)C[C@H](N(C)C)[C@H]2O)[C@@](C)(OC)C[C@@H](C)C(=O)[C@H](C)[C@H]2N(CCCOc3cccc(-c4cccnc4)c3)C(=O)O[C@]12CC (stereo partly drawn) [Example 35, (3aS,4R,7R,9R,10R,11S,13R,15R,15aR)-3a,4-diethyl-11-methoxy-7,9,11,13,15-pentamethyl-2,6,8,14-tetraoxo-1-[3-(3-pyridin-3-ylphenoxy)propyl]-tetradecahydro-2H-oxacyclotetradecino[4,3-d][1,3]oxazol-10-yl 3,4,6-trideoxy-3-(dimethylamino)-D-xylo-hexopyranoside]	0.78 (≈ 0.931 µM)	0.78 (≈ 0.931 µM)	0.78 (≈ 0.931 µM)	0.2 (≈ 0.239 µM)	–	–	0.78 (≈ 0.931 µM)	≦0.05	≦0.05	0.78 (≈ 0.931 µM)	–	3.13 (≈ 3.73 µM)	0.2 (≈ 0.239 µM)	–	≦0.05	6.25 (≈ 7.46 µM)	0.2 (≈ 0.239 µM)
